Data: patent publication US20210267984A1, “APPLICATION OF ALLOPURINOL IN PREPARATION OF DRUG FOR TREATING CANCER WITH HIGH EXPRESSION OF PAICS GENE” (priority 2018, published 2021)

Assays:
[1] = system: cancers with non-abnormally high expression of the PAICS gene; test: Therapeutic effect, cancers with non-abnormally high PAICS expression; settings: cancers with non-abnormally high PAICS expression such as renal cancer, skin cutaneous melanoma, pheochromocytoma and paraganglioma
Excerpt: (§1) This property of allopurinol is different from those of most chemotherapeutic drugs.

[2] = system: Bel-7402; settings: data of CN102746306A; cited from earlier work
[3] = system: cancer with abnormally high expression of the PAICS gene; test: Anti-cancer and therapeutic effect, cancers with abnormally high PAICS expression
Excerpt: as §1

[4] = system: SMMC-7221; settings: data of CN102746306A; cited from earlier work
[5] = system: Colon adenocarcinoma; test: Anti-cancer effect of allopurinol (cell biology screening combined with animal experiments); settings: COAD; PAICS abnormally high expression
Excerpt: as §1

[6] = system: Prostate adenocarcinoma; test: as above; settings: PRAD; PAICS abnormally high expression
Excerpt: as §1

[7] = system: Stomach adenocarcinoma; test: as above; settings: STAD; PAICS abnormally high expression
Excerpt: as §1

[8] = system: Uterine Corpus Endometrial Carcinoma; test: as above; settings: UCEC; PAICS abnormally high expression
Excerpt: as §1

[9] = system: Head and Neck squamous cell carcinoma; test: as above; settings: HNSC; PAICS abnormally high expression
Excerpt: as §1

[10] = system: Liver hepatocellular carcinoma; test: as above; settings: LIHC; PAICS abnormally high expression
Excerpt: as §1

[11] = system: Pancreatic adenocarcinoma; test: as above; settings: PAAD; PAICS abnormally high expression
Excerpt: as §1

[12] = system: Lung adenocarcinoma; test: as above; settings: LUAD; PAICS abnormally high expression
Excerpt: as §1

[13] = system: Cholangiocarcinoma; test: as above; settings: CHOL; PAICS abnormally high expression
Excerpt: as §1

[14] = system: Cervical squamous cell carcinoma and endocervical adenocarcinoma; test: as above; settings: CESC; PAICS abnormally high expression
Excerpt: as §1

[15] = system: Breast invasive carcinoma; test: as above; settings: BRCA; PAICS abnormally high expression
Excerpt: as §1

[16] = system: Esophageal carcinoma; test: as above; settings: ESCA; PAICS abnormally high expression
Excerpt: as §1

[17] = system: Bladder Urothelial Carcinoma; test: as above; settings: BLCA; PAICS abnormally high expression
Excerpt: as §1

[18] = system: Glioblastoma multiforme; test: as above; settings: GBM; PAICS abnormally high expression
Excerpt: as §1

[19] = system: Lung squamous cell carcinoma; test: as above; settings: LUSC; PAICS abnormally high expression
Excerpt: as §1

[20] = system: Rectum adenocarcinoma; test: as above; settings: READ; PAICS abnormally high expression
Excerpt: as §1

## Oc1ncnc2[nH]ncc12 [allopurinol, Allopurinol]
[1]
  therapeutic effect: no significant therapeutic effect
[2]
  anti-tumor activity: no anti-tumor activity
[3]
  anti-cancer and therapeutic effects: significant anti-cancer and therapeutic effects
[4]
  anti-tumor activity: no anti-tumor activity
[5]
  Anti-cancer effect of allopurinol: Significant
[6]
  Anti-cancer effect of allopurinol: Significant
[7]
  Anti-cancer effect of allopurinol: Significant
[8]
  Anti-cancer effect of allopurinol: Significant
[9]
  Anti-cancer effect of allopurinol: Significant
[10]
  Anti-cancer effect of allopurinol: Significant
[11]
  Anti-cancer effect of allopurinol: Significant
[12]
  Anti-cancer effect of allopurinol: Significant
[13]
  Anti-cancer effect of allopurinol: Significant
[14]
  Anti-cancer effect of allopurinol: Significant
[15]
  Anti-cancer effect of allopurinol: Significant
[16]
  Anti-cancer effect of allopurinol: Significant
[17]
  Anti-cancer effect of allopurinol: Significant
[18]
  Anti-cancer effect of allopurinol: Significant
[19]
  Anti-cancer effect of allopurinol: Significant
[20]
  Anti-cancer effect of allopurinol: Significant
